Results taken from patent publication US11667621B2, “Antiestrogen compounds” (STEVENS INSTITUTE OF TECHNOLOGY, priority 2018, dated 2023).
Changes are numbered by the printed parent chain.

Assays:
HA-ERα wild type = target: T1, HA-ERα wild type (Homo sapiens, UniProt P03372); assay: Luciferase assay, overexpressed ER (3×-ERE-TATA-Luciferase reporter); format: cell-based; details: compound concentration 1 μM, 24 hours; read-out: Overexpressed ER (% Inhibition) WT
T1 construct: HA; expressed in transfected cells
T1 sequence (P03372 1-595): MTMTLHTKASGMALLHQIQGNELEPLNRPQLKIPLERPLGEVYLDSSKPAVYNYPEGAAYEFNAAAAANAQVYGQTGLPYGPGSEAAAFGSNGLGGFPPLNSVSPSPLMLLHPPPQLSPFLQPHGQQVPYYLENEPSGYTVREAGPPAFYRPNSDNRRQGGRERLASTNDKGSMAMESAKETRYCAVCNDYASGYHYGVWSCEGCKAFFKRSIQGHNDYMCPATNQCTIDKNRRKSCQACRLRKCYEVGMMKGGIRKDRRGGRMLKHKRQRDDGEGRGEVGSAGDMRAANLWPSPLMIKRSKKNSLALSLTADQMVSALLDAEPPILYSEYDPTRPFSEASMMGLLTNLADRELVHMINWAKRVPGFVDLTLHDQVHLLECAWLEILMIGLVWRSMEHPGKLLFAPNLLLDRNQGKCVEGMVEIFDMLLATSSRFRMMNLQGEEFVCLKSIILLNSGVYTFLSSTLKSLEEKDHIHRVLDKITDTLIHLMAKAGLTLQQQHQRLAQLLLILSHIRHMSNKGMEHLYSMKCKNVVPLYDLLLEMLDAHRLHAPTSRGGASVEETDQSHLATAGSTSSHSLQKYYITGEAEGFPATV
Procedure, shortened: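 Cells transfected with HA-ERα wild type or mutant, 3×-ERE-TATA firefly luciferase reporter and pRL-TK Renilla, then treated one day later with compound for 24 h.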

CRISPR KI D538G = target: T2, CRISPR KI D538G (Homo sapiens, UniProt P03372, D538G); assay: Luciferase assay, CRISPR KI D538G clones; format: cell-based; details: for CRISPR KI (% Inhibition) D538G cl. 50: clone 50; for CRISPR KI (% Inhibition) D538G cl. 65: clone 65
T2 construct: endogenous in cells; host or cells: CRISPR knock-in clones (cl. 50, cl. 65)
T2 sequence (P03372 1-595 D538G): T1 sequence (P03372 1-595) with D538G
Protocol: Luciferase assays were performed to determine the efficacy of the example compounds at inhibiting ER or its mutants' ability to activate transcription of genes.
Cells were plated at a density of 0.15×10^6 per well of 24 well plates one day prior to transfection. Cells were transfected with 125 ng (per well) of HA-ERα wild type or mutants, 315 ng (per well) of 3×-ERE-TATA-Luciferase reporter and 50 ng (per well) of pRL-TK Renilla Luciferase plasmid, using Xtremegene (Roche). The cells were treated with the various compounds or Fulvestrant at the indicated doses a day after transfection for 24 hours and luciferase activities were determined using the Dual-Luciferase® Reporter Assay System (Promega) according to manufacturer's instructions. Luciferase bioluminescence measurements were performed with the Veritas™ Microplate Luminometer (Promega). All experiments were conducted in triplicate and the Firefly luciferase activity was normalized with the Renilla luciferase activity of each sample.

[1] = target: T3, full length human estrogen receptor a (Homo sapiens, UniProt P03372); assay: Competitive radiometric binding assay (RBA), tritiated estradiol tracer; details: relative to estradiol = 100; average SD of 2-3 determinations
T3 construct: purified, full-length human estrogen receptor a from Invitrogen; purchased Invitrogen
T3 sequence (P03372 1-595): T1 sequence (P03372 1-595)
Protocol: Tritiated estradiol was obtained from Perkin Elmer and purified, full-length human estrogen receptor a from Invitrogen.
Competitive radiometric binding assays (RBA) were performed on 96-well microtiter filter plates (Millipore), using full length human estrogen receptor a, with tritiated estradiol as tracer, as previously described (Carlson K E, Choi I, Gee A, Katzenellenbogen B S, Katzenellenbogen J A. Altered ligand binding properties and enhanced stability of a constitutively active estrogen receptor: evidence that an open pocket conformation is required for ligand interaction. Biochemistry 1997, 36(48), 14897-14905). After incubation on ice for 18-24 h, ERα-bound tracer was absorbed onto hydroxyapatite (BioRad), washed with buffer, and measured by scintillation counting. RBA values are the average SD of 2-3 determinations.

| inhibition at 1 µM (HA-ERα wild type) [%] | CRISPR KI (% Inhibition) D538G cl. 50 (CRISPR KI D538G) [%] | CRISPR KI (% Inhibition) D538G cl. 65 (CRISPR KI D538G) [%] | RBA (estradiol = 100) [1] | Structure (SMILES) |
| --- | --- | --- | --- | --- |
| 71 | 15 | 71 | 20 ± 6 | CC(C)(C)OC(=O)N[C@@H](Cc1c[nH]c2ccccc12)C(=O)NCCCCOc1ccc(C(=C2C3CC4CC(C3)CC2C4)c2ccc(O)cc2)cc1 [Example 1, (S)-tert-Butyl (1-((4-(4-(adamantan-2-ylidene(4-hydroxyphenyl)methyl)-phenoxy)butyl)amino)-3-(1H-indol-3-yl)-1-oxopropan-2-yl)carbamate] |
| 84 | 68 | 73 | 11 ± 3 | O=C(NCCCCOc1ccc(C(=C2C3CC4CC(C3)CC2C4)c2ccc(O)cc2)cc1)C12CC3CC(CC(C3)C1)C2 [Example 6, N-(4-(4-(Adamantan-2-ylidene(4-hydroxyphenyl)methyl)phenoxy)-butyl)adamantane-1-carboxamide] |
| 83 | 15 | 44 | 6.0 ± 0.1 | CC12CC3CC(C)(C1)CC(C(=O)NCCCCOc1ccc(C(=C4C5CC6CC(C5)CC4C6)c4ccc(O)cc4)cc1)(C3)C2 [Example 7, N-(4-(4-(Adamantan-2-ylidene(4-hydroxyphenyl)methyl)phenoxy)butyl)-3,5-dimethyladamantane-1-carboxamide] |
| 83 | 39 | 78 | 17 ± 2 | O=C(NCCCCOc1ccc(C(=C2C3CC4CC(C3)CC2C4)c2ccc(O)cc2)cc1)C12CC3CC(CC1C3)C2 [Example 8, N-(4-(4-((Adamantan-2-ylidene)(4-hydroxyphenyl)methyl)phenoxy)butyl)-hexahydro-2,5-methanopentalene-3a(1H)-carboxamide] |
| 88 | 34 | 72 | 37 ± 0.3 | O=C(NCCCCOc1ccc(C(=C2C3CC4CC(C3)CC2C4)c2ccc(O)cc2)cc1)[C@H]1C[C@@H]2C=C[C@H]1C2 [Example 9, (1R, 2S, 4R)—N-(4-(4-(Adamantan-2-ylidene(4-hydroxyphenyl)methyl)phenoxy)-butyl)bicyclo[2.2.1]hept-5-ene-2-carboxamide] |
| 84 | 19 | 65 | 70 ± 1 | O=C(NCCCCOc1ccc(C(=C2C3CC4CC(C3)CC2C4)c2ccc(O)cc2)cc1)C1CCC1 [Example 10, N-(4-(4-(Adamantan-2-ylidene(4-hydroxyphenyl)methyl)phenoxy)butyl)-cyclobutanecarboxamide] |
| 89 | 74 | 84 | 28 ± 6 | O=C(NCCCCOc1ccc(C(=C2C3CC4CC(C3)CC2C4)c2ccc(O)cc2)cc1)C1CCCCC1 [Example 11, N-(4-(4-(Adamantan-2-ylidene(4-hydroxyphenyl)methyl)phenoxy)butyl)-cyclohexanecarboxamide] |
| 90 | 36 | 80 | 30 ± 5 | O=C(NCCCCOc1ccc(C(=C2C3CC4CC(C3)CC2C4)c2ccc(O)cc2)cc1)C1CCCCCC1 [Example 12, N-(4-(4-(Adamantan-2-ylidene(4-hydroxyphenyl)methyl)phenoxy)butyl)-cycloheptanecarboxamide] |
| 90 | 32 | 77 | 30 ± 0.1 | O=C(NCCCCOc1ccc(C(=C2C3CC4CC(C3)CC2C4)c2ccc(O)cc2)cc1)C1CCC(F)(F)CC1 [Example 13, N-(4-(4-(Adamantan-2-ylidene(4-hydroxyphenyl)methyl)phenoxy)butyl)-4,4-difluorocyclohexanecarboxamide] |
| 81 | 67 | 73 | 10 ± 0.4 | O=C(NCCCCOc1ccc(C(=C2C3CC4CC(C3)CC2C4)c2ccc(O)cc2)cc1)[C@H]1CC[C@H](C(F)(F)F)CC1 [Example 14, (trans)-N-(4-(4-(Adamantan-2-ylidene(4-hydroxyphenyl)methyl)phenoxy)-butyl)-4-(trifluoromethyl)cyclohexanecarboxamide] |
